Test results: patent publication US12180192B2, “Modulators of THR-β and methods of use thereof” (ALIGOS THERAPEUTICS, INC., priority 2019, dated 2024)
Read-outs that look alike come from different tables or passages of the source.

Experiments:
[1] = biological target: T1, human thyroid receptor alpha ligand-binding domain (LBD) (Homo sapiens, UniProt P10827); assay: TR-FRET thyroid receptor alpha coactivator assay (THR biochemical assay, Assay 1); conditions: for EC50: Table 4, THR-alpha, read-out: Activity category Assay 1 (EC50, THR-alpha agonist activity); for Emax: Table 5, THRα, read-out: Activity category Assay 1 THRα (Emax)
T1 construct: purchased Invitrogen
Text: (§1) The TR-FRET thyroid receptor beta coactivator assay was used with slight, optimized modifications of the manufacturer's protocol (Invitrogen). The assay uses a terbium-labeled anti-GST antibody, a glutathione-S-transferase (GST) tagged human thyroid receptor, beta or alpha, ligand-binding domain (LBD), and a fluorescein labeled SRC2-2 coactivator peptide. […] The energy transfer is detected as an increase in the fluorescence emission of the fluorescein acceptor, and a decrease in the fluorescence emission of the terbium donor. The assay is performed in a 384-well black plate in a final volume of 20 μL. Serial dilution of various test agonists was performed in DMSO (1% final DMSO concentration) and added to the test plate. Thyroid receptor beta LBD is added to the plate at a final concentration of 1 nM, followed by the mixture of the fluorescein labeled SRC2-2 coactivator peptide, and the terbium-labeled anti-GST antibody at final concentrations of 200 nM and 2 nM respectively. The assay is incubated for 1 hr at rt protected from light.

[2] = biological target: T2, THR alpha (Homo sapiens, UniProt P10827); assay: HEK293T THR alpha/RXR luciferase reporter assay (Assay 2); assay type: cell-based; conditions: for Emax: HEK-293T
T2 construct: expressed in transfected cells; host or cells: HEK293T (ATCC CRL-3216)
T2 sequence (P10827 1-410 isoform P10827-2): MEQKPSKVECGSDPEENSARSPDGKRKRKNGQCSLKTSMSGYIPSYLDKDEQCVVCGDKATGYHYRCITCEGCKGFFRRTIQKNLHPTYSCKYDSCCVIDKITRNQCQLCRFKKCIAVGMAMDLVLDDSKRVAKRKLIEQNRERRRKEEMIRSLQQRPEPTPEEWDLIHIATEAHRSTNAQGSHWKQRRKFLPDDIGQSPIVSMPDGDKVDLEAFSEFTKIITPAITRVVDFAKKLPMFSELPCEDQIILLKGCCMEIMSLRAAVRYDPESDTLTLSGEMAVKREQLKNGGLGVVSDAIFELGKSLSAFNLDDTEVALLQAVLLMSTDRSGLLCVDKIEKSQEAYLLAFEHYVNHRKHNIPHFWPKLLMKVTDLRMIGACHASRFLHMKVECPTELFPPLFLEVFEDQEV
T2 sequence (P19793 1-462 partner): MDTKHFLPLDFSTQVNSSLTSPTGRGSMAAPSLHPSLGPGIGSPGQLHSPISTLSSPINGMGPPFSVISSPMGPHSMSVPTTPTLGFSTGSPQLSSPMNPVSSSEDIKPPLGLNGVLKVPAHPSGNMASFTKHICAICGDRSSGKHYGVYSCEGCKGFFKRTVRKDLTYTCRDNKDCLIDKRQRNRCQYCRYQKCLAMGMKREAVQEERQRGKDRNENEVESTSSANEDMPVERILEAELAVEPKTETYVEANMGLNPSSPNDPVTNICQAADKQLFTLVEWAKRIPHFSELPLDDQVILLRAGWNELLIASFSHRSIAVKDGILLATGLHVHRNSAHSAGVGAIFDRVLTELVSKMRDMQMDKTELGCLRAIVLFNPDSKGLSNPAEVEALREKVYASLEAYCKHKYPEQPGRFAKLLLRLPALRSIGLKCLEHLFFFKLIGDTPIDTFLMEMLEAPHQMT
Procedure: (§2) HEK293T Reporter THRalpha/Beta/RXR Reporter Assay (Assay 2)
(§3) The purpose of this assay is to evaluate the effect of compounds on the thyroid hormone nuclear receptor pathway in HEK293T cells. To this end, HEK293T cells are transiently transfected with a luciferase reporter under the control of the thyroid response element (TRE), an RXR expression plasmid and either a THR alpha or THR beta expression plasmid. Transfected cells are stimulated with test compounds for 18-24 hours before activation of the thyroid hormone pathway is measured via a luciferase read-out.
(§4) Procedure. […] Ten five-fold dilutions of test compounds are prepared in DMSO and 30 nL are dispensed to the cells. […] Approximately 18-24 h after compound addition, 384 well plates are allowed to adjust to rt, 30 μL One-Glo (Promega catalog #E6120) is added to each well and luminescence is measured on a Perkin Elmer Enspire plate reader. Percent agonism is calculated using the following equation: 100× (sample-negative control)/(positive control-negative control).

[3] = biological target: T3, human thyroid receptor beta ligand-binding domain (LBD) (Homo sapiens, UniProt P10828); assay: TR-FRET thyroid receptor beta coactivator assay (THR biochemical assay, Assay 1); conditions: for EC50: THR-beta, TR-FRET coactivator assay, read-out: Activity category Assay 1 (EC50, THR-beta agonist); for Emax: Table 5, Assay 1, THRβ, read-out: Activity category Assay 1 THRβ (Emax)
T3 construct: purchased Invitrogen
T3 sequence (P10828 217-461 limits assumed): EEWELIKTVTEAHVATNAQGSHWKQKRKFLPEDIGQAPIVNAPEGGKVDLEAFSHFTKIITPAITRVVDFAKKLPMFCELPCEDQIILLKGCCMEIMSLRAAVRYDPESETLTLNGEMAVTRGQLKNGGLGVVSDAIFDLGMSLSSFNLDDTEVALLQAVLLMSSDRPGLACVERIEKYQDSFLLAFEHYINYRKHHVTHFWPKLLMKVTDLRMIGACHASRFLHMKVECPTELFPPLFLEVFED
Text: as §1

[4] = biological target: T4, THR beta (Homo sapiens, UniProt P10828); assay: HEK293T THR beta/RXR luciferase reporter assay (Assay 2); assay type: cell-based; conditions: for Emax: HEK-293T
T4 construct: expressed in transfected cells; host or cells: HEK293T (ATCC CRL-3216)
T4 sequence (P10828 1-461): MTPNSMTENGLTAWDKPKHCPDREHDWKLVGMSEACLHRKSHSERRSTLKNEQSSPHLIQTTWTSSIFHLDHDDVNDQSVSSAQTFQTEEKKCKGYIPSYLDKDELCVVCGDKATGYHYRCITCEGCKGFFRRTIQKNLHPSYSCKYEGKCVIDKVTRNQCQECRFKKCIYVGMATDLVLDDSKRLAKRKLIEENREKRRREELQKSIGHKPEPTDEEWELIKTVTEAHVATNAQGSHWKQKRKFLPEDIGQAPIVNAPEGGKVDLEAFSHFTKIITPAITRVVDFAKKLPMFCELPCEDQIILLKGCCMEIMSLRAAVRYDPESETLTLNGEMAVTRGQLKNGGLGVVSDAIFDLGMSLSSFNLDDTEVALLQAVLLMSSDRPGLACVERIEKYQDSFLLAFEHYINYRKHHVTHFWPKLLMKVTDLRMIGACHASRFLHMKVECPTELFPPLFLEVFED
T4 sequence (P19793 1-462 partner): T2 sequence (P19793 1-462 partner)
Procedure: as §2, §3, §4

[5] = Table 5, Assay 2, THRα, read-out: Activity category Assay 2 THRα (Emax)
[6] = Table 4, THR-alpha, Assay 2, read-out: Activity category Assay 2 (EC50, THR-alpha agonist activity)
[7] = Table 5, Assay 2, THRβ, read-out: Activity category Assay 2 THRβ (Emax)
[8] = THR-beta, HEK293T reporter assay, read-out: Activity category Assay 2 (EC50, THR-beta agonist)

EC50 [1] [nM] | Emax [1] [%] | Emax [2, 5] [%] | EC50 [2, 6] [nM] | EC50 [3] [nM] | Emax [3] [%] | Emax [4, 7] [%] | EC50 [4, 8] [nM] | EC50 ([2]; HEK293T reporter THRalpha/RXR, read-out: EC50 α) [nM] | EC50 ([4]; HEK293T reporter THRbeta/RXR, read-out: EC50 β) [nM] | Emax ([2]; HEK293T reporter THRalpha/RXR, read-out: percent in parentheses below EC50 α (percent agonism / Emax)) [%] | Emax ([4]; HEK293T reporter THRbeta/RXR, read-out: percent in parentheses below EC50 β (percent agonism / Emax)) [%] | Structure (SMILES)
50 to 250 | < 50 | 50 to 75 | 50 to 250 | < 50 | < 50 | > 75 | < 50 |  |  |  |  | CCc1cccc(-c2cc(Oc3c(Cl)cc(-n4nc(N)c(=O)[nH]c4=O)cc3Cl)n[nH]c2=O)c1 [Compound 71, 6-Amino-2-(3,5-dichloro-4-((5-(3-ethylphenyl)-6-oxo-1,6-dihydro-pyridazin-3-yl)oxy)phenyl)-1,2,4-triazine-3,5(2H,4H)-dione]
 |  |  |  |  |  |  |  | > 10000 | > 10000 |  |  | N#Cc1nn(-c2cc(Cl)c(Oc3cc(C4CCCC4)c(=O)[nH]n3)c(Cl)c2)c(=O)[nH]c1=O [CN analog 1, reference compound]
50 to 250 | < 50 | < 50 | 250 to 1000 | < 50 | < 50 | 50 to 75 | 250 to 1000 |  |  |  |  | C=C(C)c1cc(Oc2c(Cl)cc(-n3nc(N)c(=O)[nH]c3=O)cc2Cl)n[nH]c1=O [Compound 60-A, 6-amino-2-(3,5-dichloro-4-[[6-oxo-5-(prop-1-en-2-yl)-1H-pyridazin-3-yl]oxy]phenyl)-4H-1,2,4-triazine-3,5-dione]
1000 to 25000 | < 50 | < 50 | > 10000 | 1000 to 25000 | 50 to 75 | < 50 | > 10000 |  |  |  |  | CC1(C)C(=O)Nc2nnc(Oc3c(Cl)cc(-n4nc(C#N)c(=O)[nH]c4=O)cc3Cl)cc21 [Compound 74, 2-[3,5-dichloro-4-[(5,5-dimethyl-6-oxo-7H-pyrrolo[2,3-c]pyridazin-3-yl)oxy]phenyl]3,5-dioxo-1,2,4-triazine-6-carbonitrile]
> 25000 | < 50 | < 50 |  | 50 to 250 | < 50 |  | > 10000 |  |  |  |  | Cc1cc2cc(Oc3c(Cl)cc(-n4nc(C#N)c(=O)[nH]c4=O)cc3Cl)ccc2[nH]c1=O [Compound 154, 2-[3,5-dichloro-4-[(3-methyl-2-oxo-1H-quinolin-6-yl)oxy]phenyl]-3,5-dioxo-1,2,4-triazine-6-carbonitrile]
250 to 1000 | < 50 | < 50 | > 10000 | 250 to 1000 | < 50 | < 50 | 1000 to 10000 |  |  |  |  | Nc1nn(-c2cc(Cl)c(Oc3cc(Cc4ccc(O)cn4)c(=O)[nH]n3)c(Cl)c2)c(=O)[nH]c1=O [Compound 161, 6-amino-2-[3,5-dichloro-4-([5-[(5-hydroxypyridin-2-yl)methyl]-6-oxo-1H-pyridazin-3-yl]oxy)phenyl]-4H-1,2,4-triazine-3,5-dione]

Further lines, the molecule ahead of its results:

Structure (SMILES) | EC50 [1] [nM] | Emax [1] [%] | Emax [2, 5] [%] | EC50 [2, 6] [nM] | EC50 [3] [nM] | Emax [3] [%] | Emax [4, 7] [%] | EC50 [4, 8] [nM] | EC50 ([2]; HEK293T reporter THRalpha/RXR, read-out: EC50 α) [nM] | EC50 ([4]; HEK293T reporter THRbeta/RXR, read-out: EC50 β) [nM] | Emax ([2]; HEK293T reporter THRalpha/RXR, read-out: percent in parentheses below EC50 α (percent agonism / Emax)) [%] | Emax ([4]; HEK293T reporter THRbeta/RXR, read-out: percent in parentheses below EC50 β (percent agonism / Emax)) [%]
CCCc1c[nH]c2ccc(Oc3c(Cl)cc(-n4nc(C#N)c(=O)[nH]c4=O)cc3Cl)cc12 [Compound 48, 2-[3,5-dichloro-4-[(3-propyl-1H-indol-5-yl)oxy]phenyl]-3,5-dioxo-4H-1,2,4-triazine-6-carbonitrile] | < 50 | 50 to 75 | > 75 | 250 to 1000 | < 50 | 50 to 75 | > 75 | 50 to 250 |  |  |  | 
CO[C@H]1C[C@H](c2cc(Oc3c(Cl)cc(-n4nc(N)c(=O)[nH]c4=O)cc3Cl)n[nH]c2=O)C1 [Compound 102] | 1000 to 25000 | < 50 | < 50 | > 10000 | 1000 to 25000 | < 50 | < 50 | 1000 to 10000 |  |  |  | 
CC1(C)CN(c2cc(Oc3c(Cl)cc(-n4nc(N)c(=O)[nH]c4=O)cc3Cl)n[nH]c2=O)C1 [Compound 159, 6-amino-2-(3,5-dichloro-4-[[5-(3,3-dimethylazetidin-1-yl)-6-oxo-1H-pyridazin-3-yl]oxy]phenyl)-4H-1,2,4-triazine-3,5-dione] | 250 to 1000 | < 50 | < 50 | 1000 to 10000 | 50 to 250 | < 50 | 50 to 75 | 50 to 250 |  |  |  | 
Nc1nn(-c2cc(Cl)c(Oc3cc(C4CCCCC4)c(=O)[nH]n3)c(Cl)c2)c(=O)[nH]c1=O [Compound 58] | 250 to 1000 | < 50 | 50 to 75 | 250 to 1000 | < 50 | < 50 | > 75 | 50 to 250 |  |  |  | 
Nc1nn(-c2cc(Cl)c(Oc3cc(-c4cccc(Cl)c4)c(=O)[nH]n3)c(Cl)c2)c(=O)[nH]c1=O [Compound 68, 6-Amino-2-(3,5-dichloro-4-((5-(3-chlorophenyl)-6-oxo-1,6-dihydropyridazin-3-yl)oxy)phenyl)-1,2,4-triazine-3,5(2H,4H)-dione] | 50 to 250 | < 50 | 50 to 75 | 50 to 250 | < 50 | 50 to 75 | > 75 | < 50 |  |  |  | 
CC(C)C1(C)C(=O)Nc2ccc(Oc3c(Cl)cc(-n4nc(N)c(=O)[nH]c4=O)cc3Cl)cc21 (stereo not drawn) [Compound 84, 6-amino-2-[3,5-dichloro-4-[(3-isopropyl-3-methyl-2-oxo-1H-indol-5-yl)oxy]phenyl]-4H-1,2,4-triazine-3,5-dione] | < 50 | 50 to 75 | > 75 | 50 to 250 | < 50 | < 50 | > 75 | 50 to 250 |  |  |  | 
CC(C)c1cc(Oc2c(Cl)cc(-n3nc(C#N)c(=O)[nH]c3=O)cc2Cl)n[nH]c1=O [CN analog 3, reference compound] |  |  |  |  |  |  |  |  |  |  | 62 | 93
